TGI data for eleven compounds are collected here from PubChem BioAssay (NCI).

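In this assay, cells in 96-well plates receive the compound at five concentrations for 48 hours. Endpoints are linearly interpolated between the surrounding concentrations. Definition used: TGI = concentration required for complete inhibition of growth.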

Test systems include A549 NSCLC; CAKI-1 renal; HCT-116 colon; HCT-15 colon; HOP-92 NSCLC; LOX IMVI melanoma; MCF7 breast; MDA-N; NCI-H460 lung; OVCAR-4 ovarian; OVCAR-8 ovarian; SF-268 CNS; SF-295 CNS.
What all share (experiment): NCI-60 cell line screen, 48 h

On to `CCCn1c(=O)c(N2CCN(c3ccccc3)CC2)nc2sc3ccccc3c21`, for which the TGI with A549 NSCLC, with CAKI-1 renal, with HCT-116 colon, in the test on HCT-15 colon, in the test with HOP-92 NSCLC and with LOX IMVI melanoma was above 100 µM each time. The TGI with MCF7 breast, in the test with MDA-N, in the test on NCI-H460 lung, in the test on OVCAR-4 ovarian, with OVCAR-8 ovarian and in the test with SF-268 CNS was above 100 µM each time. In the test with SF-295 CNS, this compound returned a TGI above 100 µM.
In the case of `CC(=O)OCC1OC(OCCCOP(=S)(OCCC#N)OCC2OC(n3ccc(N)nc3=O)C(OC(=O)c3ccccc3)C2OC(=O)c2ccccc2)C(OC(C)=O)C(OC(C)=O)C1OC(C)=O` (configuration not stated), the TGI with A549 NSCLC, with CAKI-1 renal, in the test on HCT-116 colon, in the test with HCT-15 colon, with HOP-92 NSCLC and with LOX IMVI melanoma was above 100 µM in each case. Moreover, the TGI in the test with MCF7 breast, in the test with MDA-N, with NCI-H460 lung, with OVCAR-4 ovarian, with OVCAR-8 ovarian and in the test on SF-268 CNS was above 100 µM in each case. Also, in the test with SF-295 CNS, the TGI is above 100 µM.
Take `COc1ccc(C2=NOC(N)(c3ccc(OC)cc3)C2)cc1` (configuration not stated): the TGI in the test on A549 NSCLC, in the test with CAKI-1 renal, with HCT-116 colon, in the test on HCT-15 colon, in the test on HOP-92 NSCLC and with LOX IMVI melanoma was above 100 µM in each case. Further, the TGI in the test on MCF7 breast, with MDA-N, with NCI-H460 lung, in the test with OVCAR-4 ovarian, in the test with OVCAR-8 ovarian and with SF-295 CNS was above 100 µM each time.
Turning to `CC[C@@]1(O)C(=O)OCc2c1cc1n(c2=O)Cc2c-1nc1ccccc1c2/C=N\NC(=O)C(N)CCSC` (some centres not stated), the TGI with A549 NSCLC was 3.19 µM; with HCT-116 colon, 1.58 µM; in the test on HCT-15 colon it was above 90.3 µM; in the test on HOP-92 NSCLC it was 2.98 µM; in the test with LOX IMVI melanoma, 0.0368 µM; in the test with MCF7 breast it was 1.84 µM. The TGI is above 100 µM in the test with MDA-N; 0.624 µM in the test on NCI-H460 lung; 3.24 µM in the test on OVCAR-4 ovarian; 4.36 µM in the test on OVCAR-8 ovarian; 1.55 µM in the test on SF-268 CNS; 0.315 µM in the test with SF-295 CNS.
Regarding `CSc1c(C#N)c(N)n(-c2ccc(Cl)cc2)c(=O)c1C#N`, the TGI in the test on A549 NSCLC, in the test on CAKI-1 renal, with HCT-116 colon, in the test with HCT-15 colon, in the test with HOP-92 NSCLC and in the test on LOX IMVI melanoma was above 100 µM in each case. In addition, the TGI in the test with MCF7 breast, with MDA-N, in the test on NCI-H460 lung, with OVCAR-4 ovarian, in the test with OVCAR-8 ovarian and in the test with SF-268 CNS was above 100 µM throughout.
Turning to `O=C(O)c1ccccc1N=Nc1c(O)c(S(=O)(=O)O)cc2cc(S(=O)(=O)O)ccc12`, the TGI in the test on A549 NSCLC, in the test on CAKI-1 renal, with HCT-116 colon, in the test on HCT-15 colon, with HOP-92 NSCLC and with LOX IMVI melanoma was above 100 µM each time. Moreover, the TGI in the test on MCF7 breast, in the test on MDA-N, in the test with NCI-H460 lung, in the test with OVCAR-8 ovarian, in the test with SF-268 CNS and with SF-295 CNS was above 100 µM throughout.
As for `O=[N+]([O-])c1ccc(C(O)(C#CCN2CCCC2)c2ccccc2)cc1` (configuration not stated), the TGI was above 100 µM in the test on A549 NSCLC; above 100 µM with HCT-116 colon; above 100 µM with HCT-15 colon; 51.7 µM in the test with HOP-92 NSCLC; 43.9 µM in the test with LOX IMVI melanoma; above 100 µM in the test with MCF7 breast. Moreover, the TGI with MDA-N, in the test on NCI-H460 lung, in the test on OVCAR-4 ovarian, in the test on OVCAR-8 ovarian, in the test on SF-268 CNS and in the test with SF-295 CNS was above 100 µM in each case.
As to `C=C1CC[C@@H](C)[C@](C)(CCc2ccoc2)C/C=C\C=C/1C(=O)O`, the TGI was above 100 µM in the test on A549 NSCLC; above 100 µM with CAKI-1 renal; 54.6 µM with HCT-116 colon; above 100 µM in the test with HCT-15 colon; above 100 µM in the test on HOP-92 NSCLC; 57 µM in the test with LOX IMVI melanoma. Also, the TGI in the test on MCF7 breast is above 100 µM; with MDA-N it was 66.1 µM; in the test on NCI-H460 lung, above 100 µM; with OVCAR-4 ovarian it was above 100 µM; in the test with OVCAR-8 ovarian it was 48.8 µM; with SF-295 CNS, above 100 µM.
As to `COc1cc(Nc2nc3cc(C(F)(F)F)ccc3n3cccc23)cc(OC)c1OC`, the TGI in the test with A549 NSCLC, in the test with CAKI-1 renal, in the test on HCT-116 colon, in the test on HCT-15 colon, with HOP-92 NSCLC and in the test on MCF7 breast was above 100 µM each time. In addition, the TGI in the test on MDA-N, in the test on OVCAR-8 ovarian, in the test on SF-268 CNS and in the test on SF-295 CNS was above 100 µM in each case.
Regarding `O=C(c1ccco1)N(C(=O)N1CCN(c2ccccc2)CC1)S(=O)(=O)c1ccccc1`, the TGI was above 100 µM in the test on A549 NSCLC; 57.8 µM in the test with CAKI-1 renal; 44 µM with HCT-116 colon; above 100 µM with HCT-15 colon; 73.6 µM in the test with HOP-92 NSCLC; 84 µM with MCF7 breast. Moreover, the TGI was 49.6 µM in the test on MDA-N; above 100 µM with NCI-H460 lung; above 100 µM in the test with OVCAR-4 ovarian; above 100 µM in the test on OVCAR-8 ovarian; above 100 µM in the test with SF-268 CNS; above 100 µM with SF-295 CNS.
Regarding `CCC1C(c2ccccc2O)c2cc3c(cc2OC1N1CCOCC1)OCO3` (configuration not stated), the TGI turned out to be 29.9 µM in the test on A549 NSCLC; 34.1 µM with CAKI-1 renal; 26.5 µM in the test on HCT-116 colon; 21.4 µM in the test with HCT-15 colon; 27.6 µM in the test with HOP-92 NSCLC; 30.2 µM with LOX IMVI melanoma. In addition, the TGI in the test with MCF7 breast was 28.2 µM; in the test on MDA-N it was 28.6 µM; with NCI-H460 lung, 29.7 µM; in the test with OVCAR-8 ovarian it was 46.2 µM; in the test with SF-268 CNS it was 31.8 µM; in the test on SF-295 CNS, 28.6 µM.
